For 30 compounds, IC50 results are on record in patent publication US9688683B2, “Substituted condensed pyrimidine compounds” (GRÜNENTHAL GMBH, priority 2013, dated 2017).

Each structure is given as a SMILES string.

The target of this assay is human PDE4B1 (Homo sapiens (Human), UniProt Q07343). As to the kind of experiment: cAMP HTRF assay to determine the activity of hPDE4B1. It counts as biochemical. The following applies: human recombinant PDE4B1 expressed in Sf9 cells; cAMP 40 nM; N=1-2, n=2; read-out: PDE4B IC50-value. The procedure: A: Determination of the PDE4B IC50 Values with a cAMP HRTF® Assay to Determine the Activity of hPDE4B1
human PDE4B1, sequence (Q07343 whole entry): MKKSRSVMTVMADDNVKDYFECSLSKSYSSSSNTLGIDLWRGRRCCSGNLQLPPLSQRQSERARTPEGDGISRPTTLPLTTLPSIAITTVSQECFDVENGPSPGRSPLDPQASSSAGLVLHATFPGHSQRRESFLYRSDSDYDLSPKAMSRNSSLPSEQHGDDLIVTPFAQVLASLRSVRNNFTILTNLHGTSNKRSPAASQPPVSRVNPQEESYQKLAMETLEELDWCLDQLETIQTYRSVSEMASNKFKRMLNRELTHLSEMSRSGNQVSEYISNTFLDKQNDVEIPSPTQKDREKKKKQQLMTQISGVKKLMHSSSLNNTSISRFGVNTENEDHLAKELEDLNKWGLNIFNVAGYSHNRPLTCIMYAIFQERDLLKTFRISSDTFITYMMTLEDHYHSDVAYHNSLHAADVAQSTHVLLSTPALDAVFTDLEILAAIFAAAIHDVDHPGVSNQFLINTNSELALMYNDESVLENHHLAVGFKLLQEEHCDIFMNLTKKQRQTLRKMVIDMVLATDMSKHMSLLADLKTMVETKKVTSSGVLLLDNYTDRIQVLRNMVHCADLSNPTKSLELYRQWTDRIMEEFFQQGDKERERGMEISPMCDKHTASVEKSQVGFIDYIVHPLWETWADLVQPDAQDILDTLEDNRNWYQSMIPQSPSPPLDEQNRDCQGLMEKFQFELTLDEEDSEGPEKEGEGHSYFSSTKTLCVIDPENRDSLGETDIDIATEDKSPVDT
The inhibiting effect of the compounds on the enzyme activity of human PDE4B1 is measured by the quantification of 5′-AMP, which is formed from 3′,5′-adenosine monophosphate (cAMP). Human recombinant enzyme, expressed in Sf9 cells, and the HTRF (homogeneous time-resolved fluorescence) detection method are used in the assay.
The test compound or water (control) is mixed with the human recombinant PDE4B1 enzyme (4.8 U) in a buffer consisting of 44.4 mM tris-HCl, 5.28 mM MgCl2, 2.64 mM DTT and 0.044% Tween 20 (pH 7.8). After adding the cAMP enzyme substrate (final concentration 40 nM) the mixture is incubated for 30 minutes at room temperature. Then a fluorescence acceptor (Dye2 marked with cAMP), a fluorescence donor (anti-cAMP antibody marked with a europium cryptate) and the non-specific phosphodiesterase inhibitor IBMX (3-isobutyl-1-methylxanthine; final concentration 1 mM) are added. After 60 minutes the fluorescence transfer, which correlates with the amount of remaining cAMP, is measured with a microplate reader (Rubystar, BMG) at λex=337 nm, λem=620 nm and λem=665 nm. The enzyme activity is calculated from the quotient formed from the measured signal at 665 nm and that at 620 nm. The result is expressed as the percentage inhibition of enzyme activity of the control (without PDE4 inhibitor) (literature: N. Saldou et al., Comparison of recombinant human PDE4 isoforms: interaction with substrate and inhibitors, Cell. Signal. Vol. 10, No. 6, 427-440, 1998). The enzyme is omitted for measurement of the basal control.

By IC50 is commonly meant the concentration that inhibits the measured activity by half. In the case of `COc1ccc(-c2nc(C)c3ccn(-c4ccc(C(=O)O)cc4)c3n2)cc1F` [Compound 1, 4-(2-(3-Fluoro-4-methoxyphenyl)-4-methyl-7H-pyrrolo[2,3-d]pyrimidin-7-yl)benzoic acid], the IC50 is less than 1 µM.

For the compound `CCc1nc(-c2ccc(OC)c(F)c2)nc2c1ccn2-c1ccc(C(=O)O)cc1` [Compound 2, 4-(4-ethyl-2-(3-fluoro-4-methoxyphenyl)-7H-pyrrolo[2,3-d]pyrimidin-7-yl)benzoic acid], the IC50 is less than 1 µM.

As to `CCc1nc(-c2ccc(OC)c(F)c2)nc2c1ccn2-c1ccc(CC(=O)O)cc1` [Compound 4, 2,2,2-Trifluoroacetic acid compound with 2-(4-(4-ethyl-2-(3-fluoro-4-methoxyphenyl)-7H-pyrrolo[2,3-d]pyrimidin-7-yl)phenyl)acetic acid (1:1)], the IC50 is less than 1 µM.

For `CCc1nc(-c2ccc(OC)c(F)c2)nc2c1CCN2c1ccc(C(=O)O)cc1` [Compound 6, 4-(4-ethyl-2-(3-fluoro-4-methoxyphenyl)-5H-pyrrolo[2,3-d]pyrimidin-7(6H)-yl)benzoic acid], the IC50 was 1 to 10 µM.

`COc1ccc(-c2nc(C)c3c(n2)N(c2ccc(CC(=O)O)cc2)CC3)cc1F` [Compound 7, 2-(4-(2-(3-Fluoro-4-methoxyphenyl)-4-methyl-5H-pyrrolo[2,3-d]pyrimidin-7(6H)-yl)phenyl)acetic acid]: the IC50 was less than 1 µM.

With `CCc1nc(-c2ccc(OC)c(F)c2)nc2c1CCN2c1ccc(CC(=O)O)cc1` [Compound 8, 2-(4-(4-Ethyl-2-(3-fluoro-4-methoxyphenyl)-5H-pyrrolo[2,3-d]pyrimidin-7(6H)-yl)phenyl)-acetic acid], the IC50 is less than 1 µM.

Take `CCc1nc(-c2ccc(OC)c(F)c2)nc2c1CCN2c1cccc(OCC(=O)N(C)C)c1` [Compound 9, 2-(3-(4-Ethyl-2-(3-fluoro-4-methoxyphenyl)-5H-pyrrolo[2,3-d]pyrimidin-7(6H)-yl)phenoxy)-N,N-dimethylacetamide]: the concentration for half-maximal inhibition (IC50) is less than 1 µM.

Regarding `COc1ccc(-c2nc(C)c3c(n2)N(c2ccc(CC(=O)O)cc2)CC3C)cc1F` (stereo not drawn) [Compound 12, 2,2,2-Trifluoroacetic acid compound with 2-(4-(2-(3-fluoro-4-methoxyphenyl)-4,5-dimethyl-5H-pyrrolo[2,3-d]pyrimidin-7(6H)-yl)phenyl)acetic acid (1:1)], the 50% inhibitory concentration (IC50) was less than 1 µM.

In the case of `COc1ccc(-c2nc(C)c3ccn(-c4ccc(C(=O)O)cc4)c3n2)cc1Cl` [Compound 14, 4-(2-(3-Chloro-4-methoxyphenyl)-4-methyl-7H-pyrrolo[2,3-d]pyrimidin-7-yl)benzoic acid], the IC50 was less than 1 µM.

As for `COc1ccc(-c2nc(C)c3ccn(-c4ccc(CC(=O)O)cc4)c3n2)cc1Cl` [Compound 16, 2-(4-(2-(3-Chloro-4-methoxyphenyl)-4-methyl-7H-pyrrolo[2,3-d]pyrimidin-7-yl)phenyl)acetic acid], the IC50 is less than 1 µM.

`COc1ccc(-c2nc(C)c3c(n2)N(c2ccc(CC(=O)O)cc2)CC3)cc1Cl` [Compound 20, 2-(4-(2-(3-Chloro-4-methoxyphenyl)-4-methyl-5H-pyrrolo[2,3-d]pyrimidin-7(6H)-yl)phenyl)acetic acid]: the IC50 is less than 1 µM.

On to `CCc1nc(-c2ccc(OC)c(Cl)c2)nc2c1CCN2c1ccc(CC(=O)O)cc1` [Compound 21, 2-(4-(2-(3-Chloro-4-methoxyphenyl)-4-ethyl-5H-pyrrolo[2,3-d]pyrimidin-7(6H)-yl)phenyl)acetic acid], for which the IC50 is less than 1 µM.

Consider `COc1ccc(-c2nc(C)c3c(n2)N(c2ccc(CC(=O)O)cc2)CC3C)cc1Cl` (stereo not drawn) [Compound 24, 2,2,2-Trifluoroacetic acid compound with 2-(4-(2-(3-chloro-4-methoxyphenyl)-4,5-dimethyl-5H-pyrrolo[2,3-d]pyrimidin-7(6H)-yl)phenyl)acetic acid (1:1)], for which the IC50 was less than 1 µM.

As for `Cc1nc(-c2ccc(F)c(F)c2)nc2c1ccn2-c1ccc(C(=O)O)cc1` [Compound 26, 4-(2-(3,4-Difluorophenyl)-4-methyl-7H-pyrrolo[2,3-d]pyrimidin-7-yl)benzoic acid], the IC50 is less than 1 µM.

`Cc1nc(-c2ccc(Cl)s2)nc2c1ccn2-c1ccc(C(=O)O)cc1` [Compound 38, 4-(2-(5-Chlorothiophen-2-yl)-4-methyl-7H-pyrrolo[2,3-d]pyrimidin-7-yl)benzoic acid]: the 50% inhibitory concentration (IC50) is less than 1 µM.

With `Cc1nc(-c2ccc(Cl)s2)nc2c1CCN2c1ccc(CC(=O)O)cc1` [Compound 39, 2,2,2-Trifluoroacetic acid compound with 2-(4-(2-(5-chlorothiophen-2-yl)-4-methyl-5H-pyrrolo[2,3-d]pyrimidin-7(6H)-yl)phenyl)acetic acid (1:1)], the IC50 is less than 1 µM.

For the compound `CCc1nc(-c2ccc(Cl)s2)nc2c1CCN2c1cccc(OCC(=O)N(C)C)c1` [Compound 40, 2-(3-(2-(5-chlorothiophen-2-yl)-4-ethyl-5H-pyrrolo[2,3-d]pyrimidin-7(6H)-yl)phenoxy)-N,N-dimethylacetamide], the IC50 was less than 1 µM.

For the compound `COc1ccc(-c2nc(OC)c3ccn(-c4ccc(C(=O)O)cc4)c3n2)cc1Cl` [Compound 45, 4-(2-(3-chloro-4-methoxyphenyl)-4-methoxy-7H-pyrrolo[2,3-d]pyrimidin-7-yl)benzoic acid], the IC50 is 1 to 10 µM.

For the compound `CCc1nc(-c2ccc(Cl)s2)nc2c1CCN2c1ccc(C(=O)O)cc1` [Compound 46, 4-(2-(5-chlorothiophen-2-yl)-4-ethyl-5H-pyrrolo[2,3-d]pyrimidin-7(6H)-yl)benzoic acid], the IC50 is less than 1 µM.

Take `CCc1nc(-c2ccc(OC)c(F)c2)nc2c1CCN2c1cccc(OCC(=O)NC2COC2)c1` [Compound 47, 2-(3-(4-ethyl-2-(3-fluoro-4-methoxyphenyl)-5H-pyrrolo[2,3-d]pyrimidin-7(6H)-yl)phenoxy)-N-(oxetan-3-yl)acetamide]: the IC50 lay in the range of 1 to 10 µM.

`COc1ccc(-c2nc(S(C)(=O)=O)c3ccn(-c4cccc(OCC(=O)N(C)C)c4)c3n2)cc1F` [Compound 50, 2-(3-(2-(3-fluoro-4-methoxyphenyl)-4-(methylsulfonyl)-7H-pyrrolo[2,3-d]pyrimidin-7-yl)phenoxy)-N,N-dimethylacetamide]: the concentration for half-maximal inhibition (IC50) lay in the range of 1 to 10 µM.

Consider `CCc1nc(-c2ccc(OC)c(F)c2)nc2c1CCN2c1cccc(OCC(=O)N(C)CC2CC2)c1` [Compound 51, N-(cyclopropylmethyl)-2-(3-(4-ethyl-2-(3-fluoro-4-methoxyphenyl)-5H-pyrrolo[2,3-d]pyrimidin-7(6H)-yl)phenoxy)-N-methylacetamide], for which the IC50 was 1 to 10 µM.

Consider `COc1ccc(-c2nc(SC)c3ccn(-c4ccc(CC(=O)O)cc4)c3n2)cc1F` [Compound 69, 2-(4-(2-(3-fluoro-4-methoxyphenyl)-4-(methylthio)-7H-pyrrolo[2,3-d]pyrimidin-7-yl)phenyl)acetic acid], for which the IC50 lay within 1 to 10 µM.

For the compound `COc1ccc(-c2nc(C3CC3)c3ccn(-c4cccc(OCC(=O)N(C)C)c4)c3n2)cc1F` [Compound 76, 2-(3-(4-cyclopropyl-2-(3-fluoro-4-methoxyphenyl)-7H-pyrrolo[2,3-d]pyrimidin-7-yl)phenoxy)-N,N-dimethylacetamide], the IC50 is 1 to 10 µM.

In the case of `CCc1nc(-c2ccc(OC)nc2)nc2c1ccn2-c1cccc(OCC(=O)N(C)C)c1` [Compound 77, 2-(3-(4-ethyl-2-(6-methoxypyridin-3-yl)-7H-pyrrolo[2,3-d]pyrimidin-7-yl)phenoxy)-N,N-dimethylacetamide], the IC50 was in the range of 1 to 10 µM.

As for `COc1ccc(-c2ncc3c(n2)N(c2cccc(OCC(=O)N(C)C)c2)CC32CC2)cc1F` [Compound 78, 2-(3-(2′-(3-fluoro-4-methoxyphenyl)spiro[cyclopropane-1,5′-pyrrolo[2,3-d]pyrimidin]-7′(6′H)-yl)phenoxy)-N,N-dimethylacetamide], the IC50 lay within 1 to 10 µM.

As to `COc1ccc(-c2nc(C)c3c(n2)N(c2cccc(OCC(=O)N(C)C)c2)CC32CC2)cc1F` [Compound 79, 2-(3-(2′-(3-fluoro-4-methoxyphenyl)-4′-methylspiro-[cyclopropane-1,5′-pyrrolo[2,3-d]pyrimidin]-7′(6′H)-yl)phenoxy)-N,N-dimethylacetamide], the IC50 fell in the range of 1 to 10 µM.

Turning to `CCc1nc(-c2cccnc2OC)nc2c1ccn2-c1cccc(OCC(=O)N(C)C)c1` [Compound 80, 2-(3-(4-ethyl-2-(2-methoxypyridin-3-yl)-7H-pyrrolo[2,3-d]pyrimidin-7-yl)phenoxy)-N,N-dimethylacetamide], the IC50 was less than 1 µM.

For `CCc1nc(-c2cccc(S(C)(=O)=O)c2)nc2c1ccn2-c1cccc(OCC(=O)N(C)C)c1` [Compound 81, 2-(3-(4-ethyl-2-(3-(methylsulfonyl)phenyl)-7H-pyrrolo[2,3-d]pyrimidin-7-yl)phenoxy)-N,N-dimethylacetamide], the IC50 is less than 1 µM.

Turning to `CCc1nc(-c2ccncc2)nc2c1ccn2-c1cccc(OCC(=O)N(C)C)c1` [Compound 82, 2-(3-(4-ethyl-2-(pyridin-4-yl)-7H-pyrrolo[2,3-d]pyrimidin-7-yl)phenoxy)-N,N-dimethylacetamide], the IC50 was less than 1 µM.
